From US20100034778A1, “STEM CELLS” (DUKE UNIVERSITY, priority 2005, published 2010)
“And” between values parts separate entries of the source, which are not always exact repeats. Equal values may be shown once. “Also recorded” adds a separate entry of the source.

Columns and labels:
[1] = system: BM CD34^+CD38^−lin^− cells; experiment: Culture of human BM CD34+CD38-lin- cells with TSF plus retinoid/rexinoid ligand (total cell expansion, immunophenotype, CFC content, morphology); format: cell-based
Description: (§1) Isolation of Human BM and CB CD34^+CD38^−lin− cells
(§2) Whole BM and CB units were obtained from the Duke University Stem Cell Laboratory within 48 hours of collection. Volume reduction of CB units was accomplished by 10 minute incubation at room temperature with 1% Hetastarch (Abbott Laboratories, North Chicago, Ill.), followed by centrifugation at 700 rpm for 10 minutes to facilitate component separation. The buffy coat was collected and washed twice with Dulbecco's phosphate buffered saline (PBS; Invitrogen, Carlsbad, Calif.) containing 10% heat-inactivated fetal bovine serum (FBS; Hyclone, Logan, Utah), 100 U/ml penicillin, and […] streptomycin (1% pcn/strp; Invitrogen). Cell pellets were resuspended in PBS with 10% FBS and 1% pcn/strp and overlaid onto Lymphoprep (Axis-Shield, Olso, Norway) and centrifuged at 1500 rpm for 30 minutes to isolate the mononuclear cell (MNC) fraction. MNCs were collected and washed twice before proceeding to lineage depletion.
(§3) Briefly, CB or BM MNCs were resuspended at 5−8×10^7 cells/ml in PBS with 10% FBS and 1% pcn/strp and incubated with 100 μl/ml antibody cocktail for 30 minutes followed by incubation with 60 μl/ml magnetic colloid for 30 minutes. Cells were then magnetically depleted on a pump fed negative selection column (Stem Cell Technologies) using the manufacturer's recommended procedure. Lin-cells were washed twice, quantified by hemacytometer count and cryopreserved in 90% FBS and 10% dimethylsulfoxide (DMSO; Sigma-Aldrich, St. Louis, Mo.) or utilized directly for further experiments.
(§4) Lin^− CB or BM cells were thawed, washed once in Iscove's Modified Dulbecco's Medium (IMDM; Invitrogen) containing 10% FBS and 1% pcn/strp, counted, and resuspended at 5−10×10^7/ml. Immunofluorescent staining was conducted using anti-human CD34-fluorescein isothiocyanate (FITC) and anti-human CD38-phycoerythrin (PE) monoclonal antibodies (Becton Dickinson, San Jose, Calif.), for 30 minutes on ice. Stained cells were washed twice and resuspended at 1×10^7 cells/ml in IMDM with 10% FBS and 1% pcn/strp. Analysis and sterile cell sorting was conducted using a FACSvantage flow cytometer (Becton Dickinson) to isolate CD34^+CD38^− and CD34^+CD38^+ subsets. The CD34^+CD38^− sort gate was set to collect only those events falling in the lowest 5% of PE fluorescence within the total CD34^+ population, to ensure acquisition of highly purified CD34^+CD38^− cells.
(§5) Analysis of In Vitro Hematopoietic Activity of Human CD34^+CD38^−lin^− Cells Following Culture with LGD1506
(§6) Primary human BM and CB CD34^+CD38^−lin cells were placed in culture with 20 ng/mL thrombopoietin, 100 ng/mL stem cell factor (SCF), and flt-3 ligand (TSF), a cytokine combination previously found to induce human stem and progenitor cell proliferation and differentiation in vitro (Chute et al, Blood 105:576-583 (2005), Chute et al, Stem ells 22:202-215 (2004)).
In order to assess the hematopoietic effects of retinoid agonists on purified human HSCs, BM and CB CD34^+CD38^−lin^− cells were placed in culture with TSP with and without 1 μM all-trans retinoic acid (ATRA), an agonist of RAR. Total cell expansion, immunophenotype, colony forming cell (CFC) content and morphologic analysis was performed on ATRA-treated progeny and compared with both day 0 CD34^+CD38^−lin^− populations and the progeny of TSF alone to assess the impact of retinoid agonism on the differentiation of human HSCs. This analysis was extended further by cultivating BM and CB CD34^+CD38^−lin^− cells with TSF coupled with ligands with specific affinity for either RAR or RXR (provided courtesy of Ligand Pharmaceuticals, Inc., San Diego, Calif.). The hematopoietic activities of LGD0815, an RARA agonist, LGD0268, an RXR agonist, and LGD1506, an RXR selective modulator, in combination with TSF, were evaluated via measurement of total cell expansion, immunophenotype analysis, CFC content and morphologic analysis of cultured progeny versus day 0 (input) BM or CB CD34^+CD38^−lin^− cells.

[2] = system: CB CD34^+CD38^−lin^− cells; experiment: Culture of human CB CD34+CD38-lin- cells with TSF plus retinoid/rexinoid ligand (immunophenotype, CFC content); format: cell-based
Description: as §1, §2, §3, §4, §5, §6
In order to assess the hematopoietic effects of retinoid agonists on purified human HSCs, BM and CB CD34^+CD38^−lin^− cells were placed in culture with TSP with and without 1 μM all-trans retinoic acid (ATRA), an agonist of RAR. […] The hematopoietic activities of LGD0815, an RARA agonist, LGD0268, an RXR agonist, and LGD1506, an RXR selective modulator, in combination with TSF, were evaluated via measurement of total cell expansion, immunophenotype analysis, CFC content and morphologic analysis of cultured progeny versus day 0 (input) BM or CB CD34^+CD38^−lin^− cells.

human BM SRCs = experiment: In vivo long-term repopulating assay in NOD/SCID mice (SRC assay) of cultured progeny
Description: In Vivo Long-Term Repopulating Assays in NOD/SCID Mice
NOD/SCID mice (Schulz et al, J. Immunol. 154:180-191 (1995)) were transplanted with either day 0 FACS-sorted BM or CB CD34^+CD38^− lin^− HSC-enriched cells or the progeny of CD34^+CD38^−lin− cells cultured with TSF alone or TSF supplemented with 1 μM LGD506, an RXR-specific ligand. Cells were transplanted via tail vein injection after irradiating NOD/SCID mice with 300 cGy using an X-ray irradiator as previously described (Chute et al, Blood 100:4433-4439 (2002), Chute et al, Blood 105:576-583 (2005)). Day 0 CD34^+CD38^−lin− HSCs and their progeny were co-transplanted with 2×10^4 […] accessory cells to facilitate engraftment as previously described (Bonnet et al, Bone Marrow Transpl. 23:203-209 (1999), Bhatia et al, Proc. Natl. Acad. Sci. USA 94:5320-5325 (1997)).
All mice in each group were sacrificed at week 8 and marrow samples were obtained by flushing their femurs with IMDM at 4° C. Red cells were lysed using red cell lysis buffer (Sigma-Aldrich) and flow cytometric analysis of human hematopoietic engraftment was performed as previously described using commercially available mAbs against human leukocyte differentiation antigens to identify engrafted human leukocytes and discriminate their hematopoietic lineages (Chute et al, Blood 100:4433-4439 (2002), Chute et al, Blood 105:576-583 (2005), Trischmann et al, J. Hematother. 2:305-313 (1993)).
Statistical Analysis and SRC Frequency Measurements
Comparisons of data from in vitro experiments were made using the Student's t test. For purposes of the limiting dilution analysis, a transplanted mouse was scored as positively engrafted if ≧0.1% of the marrow cells expressed human-CD45 via high resolution FACS analysis. This criteria is consistent with previously published criteria for human cell repopulation in NOD/SCID mice (Chute et al, Blood 100:4433-4439 (2002), Dorrell et al, Blood 95:102-110 (2000)). SRC frequency in each cell source was calculated using the maximum likelihood estimator as described previously by Taswell (J. Immunol. 126:1614-1619 (1981), Wang et al, Blood 89:3919-3924 (1997), Ueda et al, J. Clin. Invest. 105:1013-1021 (2000)). Confidence intervals for the frequencies were calculated using the profile likelihood method, and the likelihood ratio test was used to confirm the fit of the model.

HOXB4 = experiment: Quantitative real-time PCR of HOXB4 expression in cultured CB CD34+CD38-lin- cells; format: cell-based, human
Excerpt: Real Time PCR Analysis of LGD506-Treated HSCs
Extraction of total RNA from Day 0 and Day 7 CB CD34^+ populations was done using a RNeasy Mini spin column (Qiagen, Valencia, Calif.) according to the manufacturer's recommended protocol. […] Briefly, total RNA was isolated from CD34^+CD38^−lin^− cells according to the manufacturer's instructions for the RNaqueous®—Micro (Ambion) and reversed-transcribed to cDNA using iScript™ cDNA synthesis Kit (Biorad, Hercules, Calif.). cDNA concentrations were measured with a fluorometer (Turner Designs, Sunnyvale, Calif.) using RiboGreen reagent (Invitrogen). PCR amplification reactions were performed in 13 μl and contained equal amounts of cDNAs, 6.5 μL of iQ SYBR green supermix (Bio-Rad), 0.2 μM of each forward and reverse gene-specific primers for genes of interest and the normalization gene 36B4. PCR was performed on an iCycler (Bio-Rad) according to the following cycling conditions: an initial cycle of 15 min at 95° C.; 45 cycles of 45 sec at 95° C., 15 sec at 55° C., and 15 sec at 72° C.; followed by a melt-curve analysis cycle with steps of 10 sec each at 0.5° C. increments from 60 to 95° C. Amplification rates were visualized and analyzed on ICYCLER IQ optical system software version 3.0 (Bio-Rad). Gene-specific primers were purchased from Integrated DNA Technologies (Coralville, Iowa).

RXR:LXR heterodimer = details: unpublished data of M. Leibowitz et al.; cited from earlier work
RXR:RAR heterodimer = details: unpublished data of M. Leibowitz et al.; cited from earlier work

C/C(=C/C=C/C(C)=C/C(=O)O)c1cc(C(C)(C)C)cc(C(C)(C)C)c1OCC(F)F [LGD1506]
increase in BM CD34+CD38- cell numbers compared to day 0 (input) ([1]; BM cells, LGD1506+TSF): 4 fold
total cell expansion ([1]; BM cells, LGD1506+TSF, day 7): 13 fold
reduction in CFC production during culture compared to TSF alone ([1]; LGD1506+TSF culture (FIG. 2D)): 50%
morphologic examination of cultured progeny ([1]; LGD1506+TSF cultures, data not shown): predominance of immature blasts
differentiation of human HSCs during culture ([1]; LGD1506 with TSF): inhibited HSC differentiation
CFCs less compared to TSF-cultured cells ([1]; progeny of LGD1506+TSF cultures): 2 fold
maintenance of CD34+CD38- cells in CB cultures ([2]; CB cells, TSF+LGD1506): supported the maintenance
huCD45+ cell repopulation of transplanted mice (human BM SRCs; cell dose 1−2.5×10^3, progeny of TSF+LGD1506 culture): no huCD45+ cell repopulation was detected
multilineage differentiation in engrafted mice (human BM SRCs; mice engrafted with LGD1506-treated cells): normal multilineage differentiation was evident
percent of transplanted mice with human repopulation (human BM SRCs; progeny of 5×10^3 BM CD34+CD38-lin- cells, LGD1506+TSF): 50-80% and 80%
mice showing huCD45+ cell repopulation (human BM SRCs; progeny of 5×10^3 BM CD34+CD38-lin- cells, LGD1506+TSF, week 8): 4 of 5
mean huCD45+ cell repopulation (human BM SRCs; progeny of 5×10^3 BM cells, LGD1506+TSF): 0.2%
HOXB4 expression over time (HOXB4; LGD1506+TSF versus TSF alone (FIG. 3A)): prevented the downregulation
HOXB4 expression, percent of input (day 0) levels (HOXB4; LGD1506 added to TSF): 80% and 70%
effect on RXR:LXR heterodimer (RXR:LXR heterodimer): inhibit
effect on RXR:RAR heterodimer (RXR:RAR heterodimer): neutral or inhibitory effects

CC1=C(/C=C/C(C)=C/C=C/C(C)=C/C(=O)O)C(C)(C)CCC1 [ATRA, all-trans retinoic acid]
percentage of CD34+CD38- cells at day 7 ([1]; BM cells, TSF+1 μM ligand, day 7): caused a decline
differentiation of human HSCs during culture ([2]; ATRA with TSF, by day 7): enhanced the differentiation; also recorded: induced pronounced differentiation and myelbid maturation
number of CFCs ([2]; CB cells, ATRA+TSF versus TSF alone): signficantly less CFCs; also recorded: decreased
percentage of CD34+ cells ([2]; CB cells, TSF+1 μM ATRA, 7 days, versus TSF alone): marked loss; also recorded: declined relative to TSF alone
CD34+CD38- cells remaining in culture ([2]; CB cells, TSF+1 μM ATRA, day 7): marked loss; also recorded: no CD34^+CD38^− cells remained
